Assay results taken from patent publication US20120294808A1, “Fluorescent Analogs of Neurotransmitters, Compositions Containing the Same and Methods of Using the Same” (UNIVERSITY OF MIAMI, priority 2009, published 2012).
Where “and” joins values, the source holds several entries; their conditions need not be identical. Equal entries are not always repeated. Entries after “also recorded” stand apart in the source; their conditions may differ.

Legend:
[1] = test system: Neurons and astroglia isolated from E14 chick brainstems; experiment: Live confocal imaging of cultured cells exposed to probe (405 nm excitation); type: cell-based
Procedure: In other words, whether the probe localized to the cell membrane, implying binding to transporters or receptors, or whether the probe was internalized, implying active transport into the cytosol. Neurons and astroglia isolated from E14 chick brainstems were grown on poly-L-lysine and laminin treated coverslips affixed to 35 mm culture dishes enabling live imaging of the cells in culture media. […] Cells were exposed to the probe solution for one minute, the media was then changed and additional images were captured. […] During the course of the imaging experiments, some photobleaching was observed.

[2] = test system: Mixed cell cultures of neurons and astroglia isolated from the brain stems of E14 chick embryos; experiment: Microwell plate reader cellular uptake assay, with and without clomipramine (SRI) pretreatment; type: cell-based; conditions: for effect of Clomipramine pretreatment on uptake: pre-treatment with Clomipramine, a serotonin reuptake inhibitor; for emission response (cellular uptake): λex=355 nm, λem=444 nm, versus controls A and B
From the text: Mixed cell cultures of neurons and astroglia isolated from the brain stems of E14 chick embryos were exposed to solutions of 1-4. Serotonergic cells are clustered in the raphe nucleus (RN) located along the midline of the brain stem; they project into other regions of the brain including the hypothalamus, the olfactory bulb, cortex and cerebellum. […] The inherent fluorescence of the carbostyril core enabled direct detection of their cellular uptake utilizing a microwell plate reader (λex=355 nm, λem=444 nm).
It was believed that several modes of interaction are possible between the fluorescent probes and the cultured cells including specific interactions such as active transport via neurotransmitter transporters, or binding to neurotransmitter receptors, as well as non-specific interactions such as insertion into the cell membrane.

hNET = molecular target: T1, hNET (Homo sapiens, UniProt P23975); experiment: Time-lapse confocal fluorescence microscopy of transporter-expressing HEK-293 cells (hNET); type: cell-based; conditions: HEK-293 hNET, 10 μM to 100 μM, images at 10 sec intervals
T1 construct: expressed in transfected cells
From the text: (§1) HEK-293 cells stably expressing hDAT, hNET and hSERT were provided by Prof. R. Blakely (See, e.g., J. W. Schwartz, R. D. Blakely and L. J. DeFelice, J. Biol. Chem., 2003, 278, 9768.) and cultured on 35 mm dishes with a coverslip imaging window for confocal microscopy. […] Laser intensity and gain were not altered for subsequent images captured at 10 sec intervals. Representative images are shown in FIG. 7 together with intensity profiles captured from cell bodies.

hSERT = molecular target: T2, hSERT (Homo sapiens, UniProt P31645); experiment: Time-lapse confocal fluorescence microscopy of transporter-expressing HEK-293 cells (hSERT); type: cell-based; conditions: HEK-293 hSERT, 10 μM to 100 μM, images at 10 sec intervals
T2 construct: expressed in transfected cells
From the text: as §1

[3] = test system: live brainstem and cerebellum sections from e19 chicks; experiment: Confocal imaging of live brain explant sections, with and without desipramine; parameters: species or system chick; conditions: for distribution in live brain sections: 405 nm excitation, cerebellum and brainstem
From the text: This distribution is consistent with the behavior of these probes towards MAT-expressing HEK293 cells. The wider distribution of 13A may be due to binding to multiple transporter types, wh[…] may be limited to NET or DAT expressing catecholaminergic cells. […] Image overlays from 100 μm sagittal (FIG. 8A) and transverse (FIG. 8B) sections reveal that both probes are associated with cells of chick mesencephalon and metencephalon. The fluorophores were excited by laser at 405 nm. […] The scale bars for FIG. 8 are as follows: 8A & 8B=100 μm; C & D=10 μm; and E & F=50 μm).

[4] = Optical properties (absorption and emission spectra) of carbostyril probes 1-4; type: physicochemical; conditions: for small additional emission peak: acidic solutions, protonated form
From the text: The optical properties of 1-4 were investigated in order to determine their suitability as fluorescent probes. Absorption spectra were obtained in neutral, acidic and basic solutions. […] Addition of acetic acid effected a hypsochromic shift (λmax=335 nm); the addition of triethylamine results in pronounced bathchromic (λmax=370 nm) and hyperchromic shifts. The linear combination of the absorption spectra with excess acid and excess base nearly perfectly overlaps with the spectrum obtained at pH 7.2 (FIG. 1). Therefore, it was determined that at near neutral pH (between approximately 6.5-7.5pH), both protonated and unprotonated species exist at roughly equal concentrations.
Thus, it was determined that in neutral and basic solutions, 1-4 emit from a deprotonated excited state species. Emission in acidic solutions is dominated by the deprotonated species as well. In the case of 3 and 4 a small peak at 380 nm was observed, which is likely due to photoemission from the protonated form of these molecules. While 5HT itself is fluorescent, single photon excitation of 5HT requires specialized optics and a UV excitation source (λmax,abs=277 nm). Furthermore, the autofluorescence of biological samples is also quite high in the UV region. The longer wavelength absorption of 1-4 allows selective photoexcitation of these fluorophores in the presence of aromatic amino acid residues and nucleobases.

[5] = test system: dissociated e19 chick brain cells; experiment: Example 4 uptake in brain cells (microwell plate assay and/or live cell confocal imaging, 405 nm laser); type: cell-based; conditions: 10 μM to 100 μM; absence of monoamine reuptake inhibitors
Procedure: Stock solutions of the compounds shown below (UM001-UM005, 8, 9 & 12A from Example 2) were used to produce compositions with final concentrations ranging from 10 μM to 100 μM. The compositions were then contacted with dissociated e19 chick brain cells, irradiated with a 405 nm laser, and imaged using confocal microscopy.

[6] = Optical spectroscopy (UV-vis and fluorescence) of the stilbazolium emitter library; type: physicochemical
Procedure: UV-vis spectroscopy was conducted to evaluate the absorption and emission spectra for each of the thirty-two emitters.

[7] = test system: dissociated e19 chick brain cells; experiment: 96-microwell plate uptake screen, with and without indatraline pretreatment; type: cell-based; conditions: pretreated with indatraline, a monoamine reuptake inhibitor
Procedure: The native fluorescence of the emitters enables direct detection of their uptake in dissociated e19 chick brain cells in a convenient 96-microwell plate format. This method enables screening for activity against multiple cell types and transporters including MATs and OCTs without the use of radioactive compounds. Solutions of 11A-18D were added to cell culture media to produce an emitter concentration of 100 μM. The incubation time used was 10 min. The fluorphore solution was removed, fresh media added and the plate immediately analyzed by microwell plate reader. Given the broad range of absorption and emission wavelengths, excitation varied from 355 nm to 500 nm with emission collected at +100 nm to +150 nm.
From this initial assay, it was possible to determine whether a compound associates with the cultured cells; however, it was not clear whether a particular compound was actively transported into cells or simply interacts with the cell membrane. The monoamine transporter (MAT) reuptake inhibitor, indatraline, was utilized to provide some insight into what mechanisms of cellular uptake are at play. Dissociated brain cells were pretreated with indatraline followed by each of the twelve emitters identified from the results shown in FIG. 5.

hDAT = molecular target: T3, hDAT (Homo sapiens, UniProt Q01959); experiment: Time-lapse confocal fluorescence microscopy of transporter-expressing HEK-293 cells (hDAT); type: cell-based; conditions: HEK-293 hDAT, 10 μM to 100 μM, images at 10 sec intervals
T3 construct: expressed in transfected cells
From the text: as §1

[8] = test system: monoamine oxidases (MAOs); experiment: Conversion of profluorescent HNETP to HNEP+ in cell culture; type: cell-based
From the text: In addition, it has been discovered that reduction of HNEP+ (UM006) results in the formation of HNETP (UM007). This provides a profluorescent option for screening pharmaceutical targets in vivo, which allows for the assessment of bioavailability of compounds in model organisms. In particular, the long wavelength absorption and emission of HNEP+ are not present in HNETP due to the loss of conjugation and the cationic pyridinium functionality. […] This reflects two distinct processes: accumulation of HNETP in the cells and the metabolism of HNETP to HNEP+ by MAOs. Inhibitors of MAO are important for several diseases including Parkinsons Disease as well as hypertensive disorders.

[9] = Solubility of probes 1-4 in methanol and PBS; type: physicochemical; conditions: phosphate-buffered saline (PBS), aqueous buffer; read-out: concentration at which soluble in PBS
From the text: The synthesis of analogs 2-4 followed a similar route: reaction of 5 with chloroethylamine followed by deprotection of the 6-hydroxy group produced 2; 3 and 4 resulted from reaction of 5 with bromoethanol and bromopropylbenzene respectively. In all cases the N-linked isomer was isolated.

T1 sequence (P23975 whole entry): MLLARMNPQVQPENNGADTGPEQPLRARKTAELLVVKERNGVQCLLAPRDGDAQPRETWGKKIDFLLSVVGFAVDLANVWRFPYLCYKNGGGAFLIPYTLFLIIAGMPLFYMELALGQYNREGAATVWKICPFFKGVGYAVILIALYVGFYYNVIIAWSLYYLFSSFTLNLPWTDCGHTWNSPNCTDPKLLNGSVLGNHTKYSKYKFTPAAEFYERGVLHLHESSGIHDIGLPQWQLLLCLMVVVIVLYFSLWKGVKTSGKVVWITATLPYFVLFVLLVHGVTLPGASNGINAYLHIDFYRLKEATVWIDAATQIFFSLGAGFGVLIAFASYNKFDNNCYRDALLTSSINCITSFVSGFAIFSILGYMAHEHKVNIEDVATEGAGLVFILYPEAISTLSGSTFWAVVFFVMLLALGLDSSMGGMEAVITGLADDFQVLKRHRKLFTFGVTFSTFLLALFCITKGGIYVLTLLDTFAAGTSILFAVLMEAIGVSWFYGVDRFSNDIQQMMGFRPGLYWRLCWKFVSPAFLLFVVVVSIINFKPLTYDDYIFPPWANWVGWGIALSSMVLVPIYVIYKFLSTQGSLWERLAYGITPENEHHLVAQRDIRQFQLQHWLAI
T2 sequence (P31645 whole entry): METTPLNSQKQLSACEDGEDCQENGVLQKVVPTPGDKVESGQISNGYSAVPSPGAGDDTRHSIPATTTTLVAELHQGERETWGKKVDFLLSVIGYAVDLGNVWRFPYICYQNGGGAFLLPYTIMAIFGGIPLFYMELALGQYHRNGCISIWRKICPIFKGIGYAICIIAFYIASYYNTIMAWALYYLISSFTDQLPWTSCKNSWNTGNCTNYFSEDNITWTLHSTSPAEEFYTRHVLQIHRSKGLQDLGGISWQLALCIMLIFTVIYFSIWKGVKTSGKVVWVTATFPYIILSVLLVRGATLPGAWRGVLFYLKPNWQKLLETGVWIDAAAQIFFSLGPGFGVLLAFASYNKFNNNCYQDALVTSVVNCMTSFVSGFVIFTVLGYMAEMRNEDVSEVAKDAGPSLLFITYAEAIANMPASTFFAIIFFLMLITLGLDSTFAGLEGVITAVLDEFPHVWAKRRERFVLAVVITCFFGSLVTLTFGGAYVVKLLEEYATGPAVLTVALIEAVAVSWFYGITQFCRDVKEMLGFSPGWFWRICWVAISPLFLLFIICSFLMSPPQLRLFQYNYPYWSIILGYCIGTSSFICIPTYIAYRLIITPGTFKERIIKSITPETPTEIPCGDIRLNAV
T3 sequence (Q01959 whole entry): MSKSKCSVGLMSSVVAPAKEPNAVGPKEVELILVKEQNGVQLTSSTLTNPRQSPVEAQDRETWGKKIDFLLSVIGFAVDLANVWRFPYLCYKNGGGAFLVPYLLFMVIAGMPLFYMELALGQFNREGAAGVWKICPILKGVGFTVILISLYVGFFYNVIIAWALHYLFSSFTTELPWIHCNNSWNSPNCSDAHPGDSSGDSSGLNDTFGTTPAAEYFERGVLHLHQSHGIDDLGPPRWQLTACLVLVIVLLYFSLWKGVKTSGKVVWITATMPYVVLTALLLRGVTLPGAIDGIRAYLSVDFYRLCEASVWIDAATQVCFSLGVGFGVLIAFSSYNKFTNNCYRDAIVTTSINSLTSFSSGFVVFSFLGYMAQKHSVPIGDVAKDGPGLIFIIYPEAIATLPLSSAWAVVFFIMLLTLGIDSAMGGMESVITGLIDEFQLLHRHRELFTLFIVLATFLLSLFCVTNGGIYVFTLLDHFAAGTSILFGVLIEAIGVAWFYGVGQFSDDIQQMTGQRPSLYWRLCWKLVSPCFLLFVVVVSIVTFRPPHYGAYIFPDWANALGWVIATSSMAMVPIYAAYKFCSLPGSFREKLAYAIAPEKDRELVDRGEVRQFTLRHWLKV

For NCCn1c(=O)cc(C(F)(F)F)c2ccc(O)cc21 [Compound 1], the “cell binding / illumination” value ([1]; one minute exposure, 405 nm excitation) was “bound to and illuminated most healthy cells”, the photostability during imaging ([1]; without antifade reagents) was “sufficiently stable to capture multiple images over 10 mins” and the “subcellular localization of probe” value ([1]; z-stacks, one minute exposure) was “localized internally after only one minute of exposure; also recorded: localized to the interior of both astroglia and neurons”. The “effect of Clomipramine pretreatment on uptake” value [2] was “significantly reduced” and the “emission response (cellular uptake)” value [2] was “high emission response”.

With C[n+]1ccc(/C=C/c2ccc3cc(O)ccc3c2)cc1 [Compound 14A, (E)-4-[2-(6-hydroxy-2-naphthalenyl)ethenyl]-1-methyl-pyridinium iodide] the “accumulation / transport in cells expressing NET” value (hNET) was “preferentially accumulates in cells expressing NET; also recorded: rapidly accumulated”, the “accumulation / transport in cells expressing SERT” value (hSERT) was “does not differ substantially from the control untransfected HEK cells” and the “distribution in live brain sections” value [3] was “appears in distinct cell groupings along the cerebellar gyri and around the midline of the brainstem”. The “effect of desipramine pretreatment on accumulation” value ([3]; pretreatment with desipramine, a norepinephrine reuptake inhibitor) was “limited the accumulation”.

With CN(C)CCn1c(=O)cc(C(F)(F)F)c2ccc(O)cc21 [Compound 2] the “emission response (cellular uptake)” value [2] was “did not differ significantly from the controls”.

With O=c1cc(C(F)(F)F)c2ccc(O)cc2n1CCO [Compound 3] the “small additional emission peak” value [4] was 380 nm and the “emission response (cellular uptake)” value [2] was “did not differ significantly from the controls”.

For CN(C)CCn1c(=O)cc(C(F)(F)F)c2ccc(O)cc21 [Compound 8], the “uptake in dissociated chick brain cells” value [5] was “little or no uptake”.

With NCCc1c[nH]c2ccc(O)cc12 [Compound 5HT, 5-hydroxytryptamine, reference compound] the “λmax,abs” value ([4]; 5HT comparison) was 277 nm.

With CN(C)CCN1C(=O)c2cccc3c(N)ccc(c23)C1=O [Compound 9] the “uptake in dissociated chick brain cells” value [5] was “little or no uptake”.

With COc1ccc(/C=C/c2cc[n+](C)cc2)cc1 [Compound 12A] the “uptake in dissociated chick brain cells” value [5] was “accumulated”, the absorption maxima ([6]; 10 μM solutions) was 358 nm and the emission maxima ([6]; 10 μM solutions) was 475 nm and 490 nm. The “emission response after indatraline pretreatment” value [7] was “maintained high responses even after indatraline pretreatment”.

With C[n+]1ccc(/C=C/c2ccc3ccccc3c2)cc1.[I-] [Compound 13A, (E)-1-Methyl-4-[2-(2-naphthalenyl)ethenyl]-pyridinium iodide] the “accumulation / transport in cells expressing NET” value (hNET) was “did not accumulate; also recorded: does not appear to be transported”, the “accumulation / transport in cells expressing DAT” value (hDAT) was “did not accumulate; also recorded: does not appear to be transported” and the “overall brightness (ε·Φem)” value ([6]; versus acridine orange, Hoescht 33258 and DAPI) was “compares favorably”. The “accumulation / transport in cells expressing SERT” value (hSERT) was “did not accumulate; also recorded: does not appear to be transported”, the “distribution in live brain sections” value [3] was “widely distributed in both the cerebellum and pons” and the “emission response after indatraline pretreatment” value [7] was “affected by indatraline pretreatment”.

For CN1CC=C(/C=C/c2ccc3cc(O)ccc3c2)CC1 [HNETP], the “metabolic conversion by MAOs” value [8] was “convert HNETP to HNEP+ in cell culture”.

In the case of O=c1cc(C(F)(F)F)c2ccc(O)cc2n1CCCc1ccccc1 [Compound 4], the “small additional emission peak” value [4] is reported as 380 nm, the solubility [9] is reported as < 50 µM and the “effect of Clomipramine pretreatment on uptake” value [2] is reported as “significantly reduced”. For the same compound, the “emission response (cellular uptake)” value [2] was “to a lesser extent”.
